Reference: patent US20260158011A1 (Achieve Life Sciences, Inc., priority 2023, published 2026)
“And” between values parts separate entries of the source, which are not always exact repeats. Equal entries are not always repeated. Where two headings read alike, the source gives them in different places.

Test system: adult e-cigarette users
Conditions: for Relative Risk, vaping cessation Week 9 to 12: Row 1 (X = 0) over Row 2 (X = 1); for Common Relative Risk, Logit / Common Relative Risk, Mantel-Haenszel: X = 0 over X = 1, controlling for S; for Relative Risk, Logit / Relative Risk, Mantel-Haenszel: X = 0 over X = 1, no stratifier
Experimental: This Example describes a Phase 2 ORCA-V1 trial evaluated 160 adult e-cigarette users at 5 clinical trial locations in the United States. […] ORCA-V1 participants were randomized to receive 3 mg cytisinicline three times daily or placebo for 12 weeks in combination with standard cessation behavioral support. The dose and administration of cytisinicline in the ORCA-V1 study is identical to that used in the Phase 3 registrational trials for smoking cessation.
ORCA-V1 evaluated the efficacy and safety of 3 mg cytisinicline dosed three times daily for 12 weeks compared to placebo in 160 adult users of e-cigarettes or nicotine vapes. All participants received behavioral support for nicotine cessation.
Subjects were stratified on whether they have smoked >100 cigarettes in their lifetime (yes vs no) (FIG. 57). […] Missing data may be assumed as reported vaping.
Key inclusion criteria consisted of daily electronic cigarette usage (age ≥18 years): willing to bring e-cigarette or nicotine device used to clinical site and document specific product type, flavor, and nicotine level. Individuals were required to test positive for cotinine using the Alere iScreen® Oral Fluid Screening Device (Positive testing at 30 ng/mL cotinine level). Individuals required to be willing to set quit date within 7-14 days of after randomization and to participate in vaping cessation behavioral support provided throughout the study.
Key exclusion criteria included those currently smoking, or having smoked within 4 weeks prior to study randomization, and those with Expired Carbon Monoxide (CO) levels ≥10 ppm, indicating recent combustible tobacco use (i.e., no dual users). Those with clinically abnormal laboratory values were also excluded, as well as those with positive urinary screen for illicit drugs (THC not included in screen). Those with uncontrolled hypertension (BP 160/100 mmHg), abnormal ECG, or recent acute myocardial infarction, stroke, or heart failure admission in past 3 months were excluded. Psychiatric exclusions included (1) schizophrenia or bipolar disorder, (2) current moderate to severe depression symptoms, (3) high risk of suicide ideation. Pregnant or breast-feeding women or unwilling to use acceptable methods of birth control during the study were also excluded.
The first measurement consisted of biochemically verified continuous vaping abstinence during the last 4 weeks of treatment after 12 weeks of cytisinicline treatment vs placebo. Vaping abstinence during weeks 9-12 was verified with no reported vaping with weekly saliva cotinine levels <10 ng/mL.
A second measurement consisted of biochemically verified continuous vaping abstinence at any time during treatment, with vaping abstinence at Week 3-6 or Week 6-9 for of cytisinicline treatment vs placebo. 7-day point prevalence rates were compared for vaping abstinence (Week 2 to 12) (FIG. 62). An additional measurement included reduction in daily vaping as measured by cotinine, where cytisinicline treatment vs placebo for a reduction in nicotine vaping using weekly quantitative cotinine levels from Week 2 to Week 12. Safety was assessed by adverse effects and serious adverse effects, considering number, severity, and attribution to study drug.

[1] = 3 mg cytisinicline TID 12 weeks
[2] = All Randomized Set, Cytisinicline 12 Weeks N = 107, saliva cotinine <10 ng/mL
[3] = X = 1, Table of X by Y, all randomized, 107 subjects in row
[4] = X = 1, stratum S = 0 (>100 cigarettes = No), 30 subjects in row
[5] = X = 1, stratum S = 1 (>100 cigarettes = Yes), 77 subjects in row
[6] = share of all N = 107 of the arm
[7] = vs placebo, no stratifier, N=160, vaping cessation Week 9 to 12

Structure (SMILES): O=c1cccc2n1C[C@@H]1CNC[C@H]2C1 [cytisine, (−)-Cytisine]
- Odds ratio versus placebo, vaping cessation weeks 9-12, primary analysis with prospective stratification factor [1]: 2.6 and 2.64
- Odds ratio versus placebo, vaping cessation weeks 9-12, site as a stratification factor [1]: 3.03
- Odds ratio versus placebo, vaping cessation weeks 9-12, without any stratification factor [1]: 2.62
- Vaping cessation rate during weeks 9-12 (3 mg cytisinicline TID 12 weeks, saliva cotinine <10 ng/mL): 31.8%
- Continuous Vaping Abstinence Week 9 to Week 16, n (%) (12 Weeks arm N = 107, All Randomized Set): 25 (23.4) n (%)
- Vaping Cessation from Week 3 to Week 6, percent of subjects [2]: 24.3%
- Vaping Cessation from Week 6 to Week 9, percent of subjects [2]: 30.8%
- Vaping Cessation From Week 9 to Week 12, percent of subjects (All Randomized Set, Cytisinicline 12 wks N = 107, saliva cotinine <10 ng/mL): 31.8%
- 7-Day Point Prevalence Abstinence, n (%) (Week 2, 12 Weeks arm N = 107, All Randomized Set): 15 (14.0) n (%)
- 7-Day Point Prevalence Abstinence, Difference in Proportions (Week 2, vs placebo (N = 53)): 0.06
- 7-Day Point Prevalence Abstinence, Odds Ratio (Week 2, vs placebo (N = 53)): 2.00
- 7-Day Point Prevalence Abstinence, n (%) (Week 3, 12 Weeks arm N = 107, All Randomized Set): 36 (33.6) n (%)
- 7-Day Point Prevalence Abstinence, Difference in Proportions (Week 3, vs placebo (N = 53)): 0.11
- 7-Day Point Prevalence Abstinence, Odds Ratio (Week 3, vs placebo (N = 53)): 1.73
- 7-Day Point Prevalence Abstinence, n (%) (Week 4, 12 Weeks arm N = 107, All Randomized Set): 53 (49.5) n (%)
- 7-Day Point Prevalence Abstinence, Difference in Proportions (Week 4, vs placebo (N = 53)): 0.25
- 7-Day Point Prevalence Abstinence, Odds Ratio (Week 4, vs placebo (N = 53)): 3.02
- 7-Day Point Prevalence Abstinence, n (%) (Week 5, 12 Weeks arm N = 107, All Randomized Set): 45 (42.1) n (%)
- 7-Day Point Prevalence Abstinence, Difference in Proportions (Week 5, vs placebo (N = 53)): 0.14
- 7-Day Point Prevalence Abstinence, Odds Ratio (Week 5, vs placebo (N = 53)): 1.84
- 7-Day Point Prevalence Abstinence, n (%) (Week 6, 12 Weeks arm N = 107, All Randomized Set): 44 (41.1) n (%)
- 7-Day Point Prevalence Abstinence, Difference in Proportions (Week 6, vs placebo (N = 53)): 0.17
- 7-Day Point Prevalence Abstinence, Odds Ratio (Week 6, vs placebo (N = 53)): 2.15
- 7-Day Point Prevalence Abstinence, n (%) (Week 7, 12 Weeks arm N = 107, All Randomized Set): 52 (48.6) n (%)
- 7-Day Point Prevalence Abstinence, Difference in Proportions (Week 7, vs placebo (N = 53)): 0.26
- 7-Day Point Prevalence Abstinence, Odds Ratio (Week 7, vs placebo (N = 53)): 3.23
- 7-Day Point Prevalence Abstinence, n (%) (Week 8, 12 Weeks arm N = 107, All Randomized Set): 46 (43.0) n (%)
- 7-Day Point Prevalence Abstinence, Difference in Proportions (Week 8, vs placebo (N = 53)): 0.18
- 7-Day Point Prevalence Abstinence, Odds Ratio (Week 8, vs placebo (N = 53)): 2.32
- 7-Day Point Prevalence Abstinence, n (%) (Week 9, 12 Weeks arm N = 107, All Randomized Set): 45 (42.1) n (%)
- 7-Day Point Prevalence Abstinence, Difference in Proportions (Week 9, vs placebo (N = 53)): 0.18
- 7-Day Point Prevalence Abstinence, Odds Ratio (Week 9, vs placebo (N = 53)): 2.23
- 7-Day Point Prevalence Abstinence, n (%) (Week 10, 12 Weeks arm N = 107, All Randomized Set): 44 (41.1) n (%)
- 7-Day Point Prevalence Abstinence, Difference in Proportions (Week 10, vs placebo (N = 53)): 0.13
- 7-Day Point Prevalence Abstinence, Odds Ratio (Week 10, vs placebo (N = 53)): 1.77
- 7-Day Point Prevalence Abstinence, n (%) (Week 11, 12 Weeks arm N = 107, All Randomized Set): 40 (37.4) n (%)
- 7-Day Point Prevalence Abstinence, Difference in Proportions (Week 11, vs placebo (N = 53)): 0.13
- 7-Day Point Prevalence Abstinence, Odds Ratio (Week 11, vs placebo (N = 53)): 1.84
- 7-Day Point Prevalence Abstinence, n (%) (Week 12, 12 Weeks arm N = 107, All Randomized Set): 41 (38.3) n (%)
- 7-Day Point Prevalence Abstinence, Difference in Proportions (Week 12, vs placebo (N = 53)): 0.16
- 7-Day Point Prevalence Abstinence, Odds Ratio (Week 12, vs placebo (N = 53)): 2.12
- Vaping cessation Week 9 to 12, Row Pct Y = 0 (failure) (X = 1, Table of X by Y, all randomized): 68.22 Pct
- Vaping cessation Week 9 to 12, Frequency Y = 0 (failure) [3]: 73
- Vaping cessation Week 9 to 12, Row Pct Y = 1 (success) [3]: 31.78 Pct
- Vaping cessation Week 9 to 12, Row Pct Y = 0 (failure) (X = 1, stratum S = 0 (>100 cigarettes = No)): 63.33 Pct
- Vaping cessation Week 9 to 12, Frequency Y = 0 (failure) [4]: 19
- Vaping cessation Week 9 to 12, Row Pct Y = 1 (success) [4]: 36.67 Pct
- Vaping cessation Week 9 to 12, Row Pct Y = 0 (failure) (X = 1, stratum S = 1 (>100 cigarettes = Yes)): 70.13 Pct
- Vaping cessation Week 9 to 12, Frequency Y = 0 (failure) [5]: 54
- Vaping cessation Week 9 to 12, Row Pct Y = 1 (success) [5]: 29.87 Pct
- Column 1 Risk Estimates, Risk, Row 2 (Y = 0 (failure of vaping cessation Week 9 to 12), X = 1, N=160): 0.6822
- Relative Risk, vaping cessation Week 9 to 12 (Y = 0 (failure), stratum S = 0, N=45): 1.2632
- Relative Risk, vaping cessation Week 9 to 12 (Y = 0 (failure), stratum S = 1, N=115): 1.2383
- Common Relative Risk, Logit (Y = 0 (failure), N=160): 1.2435
- Common Relative Risk, Mantel-Haenszel (Y = 0 (failure), N=160): 1.2448
- Relative Risk, Logit (Y = 0 (failure), N=160): 1.2445
- Relative Risk, Mantel-Haenszel (Y = 0 (failure), N=160): 1.2445
- Relative Risk, vaping cessation Week 9 to 12 (Y = 1 (success), stratum S = 0, N=45): 0.5455
- Relative Risk, vaping cessation Week 9 to 12 (Y = 1 (success), stratum S = 1, N=115): 0.4405
- Column 2 Risk Difference (Row 1-Row 2) (Y = 1 (success), X = 0 minus X = 1, N=160): −0.1668
- Common Relative Risk, Logit (Y = 1 (success), N=160): 0.4784
- Common Relative Risk, Mantel-Haenszel (Y = 1 (success), N=160): 0.4747
- Relative Risk, Logit (Y = 1 (success), N=160): 0.4750
- Relative Risk, Mantel-Haenszel (Y = 1 (success), N=160): 0.4750
- Column 2 Risk Estimates, Risk, Row 2 (Y = 1 (vaping cessation Week 9 to 12), X = 1, N=160): 0.3178
- Difference in Proportions, Vaping Cessation from Week 3 to Week 6 (placebo group as reference): 0.09
- Difference in Proportions, Vaping Cessation from Week 6 to Week 9 (placebo group as reference): 0.14
- Odds Ratio, Vaping Cessation from Week 3 to Week 6 (placebo group as reference): 1.81
- Odds Ratio, Vaping Cessation from Week 6 to Week 9 (placebo group as reference): 2.18
- Marginal Difference in Proportions, Vaping Cessation from Week 9 to Week 12 (placebo group as reference, All Randomized Set): 0.17
- Vaping Cessation From Week 9 to Week 12, value in parentheses, >100 Cigarettes smoke in Lifetime = No [6]: 10.3
- Vaping Cessation From Week 9 to Week 12, value in parentheses, >100 Cigarettes smoke in Lifetime = Yes [6]: 21.5
- Vaping Cessation From Week 9 to Week 12, number of subjects, >100 Cigarettes smoke in Lifetime = No (stratum S = 0 (N=45; 30 on cytisinicline), Frequency X = 1, Y = 1 in FREQ table): 11
- Vaping Cessation From Week 9 to Week 12, number of subjects, >100 Cigarettes smoke in Lifetime = Yes (stratum S = 1 (N=115; 77 on cytisinicline), Frequency X = 1, Y = 1 in FREQ table): 23
- Continuous Vaping Abstinence Week 9 to Week 16, Difference in Proportions (vs placebo (N = 53)): 0.10
- Continuous Vaping Abstinence Week 9 to Week 16, Odds Ratio (vs placebo (N = 53)): 2.00
- Common Odds Ratio (Mantel-Haenszel), vaping cessation Week 9 to 12 (vs placebo, controlling for S (>100 Cigarettes Smoked in Lifetime no, yes), N=160, listed as Cytisinicline): 2.6375 and 2.64
- Common Odds Ratio (Logit), vaping cessation Week 9 to 12 (vs placebo, controlling for S, N=160): 2.6304
- Common Odds Ratio (Logit), summary statistics for X by Y [7]: 2.6199
- Common Odds Ratio (Mantel-Haenszel), summary statistics for X by Y [7]: 2.6199
- Odds Ratio, vaping cessation Week 9 to 12 (vs placebo, stratum S = 0 (>100 cigarettes = No), N=45): 2.3158
- Odds Ratio, vaping cessation Week 9 to 12 (vs placebo, stratum S = 1 (>100 cigarettes = Yes), N=115): 2.8111
